Laboratory results from US4016176A, “Esters of 4-hydroxy-2,9-dioxatricyclo[4.3.1.0^3,7 ] decanes and processes for their production” (Kali-Chemie Pharma GmbH, priority 1973, dated 1977).

Experiments:
[1] = acute toxicity of Example 17 compound, p.o.; settings: mouse, in vivo, po
white mice = assay: spasmolytic effect
[2] = narcosis, Example 17 compound; settings: in vivo

Compound: COC1OC2OC3(C)C(OC(=O)Nc4ccccc4)CC(C2C)C13 (stereo not drawn) [Example 17, 4β-(N-Phenylcarbamyloxy)-8-methoxy-3,10-dimethyl-2,9-dioxatricyclo[4.3.1.0^3,7]decane]
- LD50 [1]: 1500 mg/kg
- spasmolytic ED50 relative to the ED100 of atropine (white mice; % of the ED100 of atropine): 0.2%
- spasmolytic ED50 relative to the ED100 of papaverine (white mice; % of the ED100 of papaverine): 0.1%
- narcosis (in words) [2]: did not produce narcosis
